The values that follow are results of earlier work, collected in paper PMC3738054 (Journal of immunology (Baltimore, Md. : 1950), 2013).

Structures are written as SMILES.

This data set relates to cerebral malaria. Particulars: oral inhibitor, murine model of cerebral malaria.

Turning to `c1cc(-c2nc3ccc(OCCCN4CCCC4)cc3o2)ccc1OCCCN1CCCC1` [E6446], the “efficacy in mitigating inflammatory injury” value was “has shown efficacy”.
